Assay results: ChEMBL document CHEMBL4706618, “Discovery of lysosome-targeted covalent anticancer agents based on isosteviol skeleton” (Eur J Med Chem, 2021)

Test: GSH reactivity in pH 7.4 sodium phosphate deuterium oxide buffer assessed as half life in presence of glutathione measured up to 6 hrs by 1H NMR analysis
Type: ADME
Conditions: sodium phosphate deuterium oxide buffer with glutathione

half-life: 30 min
SMILES: C=C1C(=O)C=C[C@]2(C)[C@@H]1CC[C@@]13C/C(=N\OC)[C@@](C)(CC[C@H]12)C3
